By pKi is commonly meant −log10 of the Ki, conventionally taken in molar units.

The text below walks through data of patent US6713265B1 (Synaptic Pharmaceutical Corporation, priority 1999, dated 2004).

pKi: −log10 of the molar value. “And” between values parts separate entries of the source, which are not always exact repeats. Equal values may be shown once. Where a name gives a salt, the structure may show the parent alone.

The subject of test [1] is NPY-induced feeding behavior. Nature of the test: NPY-induced food intake in satiated rats. In kind it is in vivo, rat. To be noted: for Food intake, NPY + compound: compound 10 mg/kg i.p. then 300 pmole NPY i.c.v., 4 hours. As for the experimental part: For these determinations food intake may be measured in normal satiated rats after intracerebroventricular application (i.c.v.) of NPY in the presence or absence of the test compound. Male Sprague Dawley rats (Ciba-Geigy AG, Sisseln, Switzerland) weighing between 180 g and 220 g are used for all experiments. The rats are individually housed in stainless steel cages and maintained on an 11:13 h light-dark cycle (lights off at 18:00 h) at a controlled temperature of 21-23° C. at all times. Water and food (NAFAG lab chow pellets NAFAG, Gossau, Switzerland) are available ad libidum.
Rats under pentobarbital anesthesia are stereotaxically implanted with a stainless steel guide cannula targeted at the right lateral ventricle. Stereotaxic coordinates, with the incisor bar set −2.0 mm below interaural line, are: −0.8 mm anterior and +1.3 mm lateral to bregma. The guide cannula is placed on the dura. Injection cannulas extend the guide cannulas −3.8 mm ventrally to the skull surface. Animals are allowed at least 4 days of recovery postoperatively before being used in the experiments. Cannula placement is checked postoperatively by testing all rats for their drinking response to a 50. ng intracerebroventricular (i.c.v.) injection of angiotensin II. Only rats which drink at least 2.5 ml of water within 30 min. after angiotensin II injection are used in the feeding studies.
All injections are made in the morning 2 hours after light onset. Peptides are injected in artificial cerebrospinal fluid (ACSF) in a volume of 5 μl. ACSF contains: NaCl 124 mM, KCl 3.75 mM, CaCl2 2.5 mM, MgSO4 2.0 mM, KH2PO4 0.22 mM, NaHCO3 26 mM and glucose 10 mM. Porcine-NPY (p-NPY) are dissolved in artificial cerebrospinal fluid (ACS). For i.c.v. injection the test compounds are preferably dissolved in DMSO/water (10%, v/v). The vehicle used for intraperitoneal (i.p.), subcutaneous (s.c.) or oral (p.o.) delivery of compounds is preferably water, physiological saline or DMSO/water (10% v/v), or cremophor/water (20% v/v), respectively.
Animals which are treated with both test compounds and porcine-NPY are treated first with the test compound.
Food intake may be measured by placing preweighed pellets into the cages at the time of NPY injection. Pellets are then removed from the cage subsequently at each selected time point and replaced with a new set of preweighed pellets. The food intake of animals treated with test compound may be calculated as a percentage of the food intake of control animals i.e., animals treated with vehicle. Alternatively, food intake for each group of animals subjected to a particular experimental condition may be expressed as the mean±S.E.M. Statistical analysis is performed by analysis of variance using the Student-Newman-Keuls test.
Food intake is reported as the mean±S.E.M. intake for a group of animals.

For a further test, the system named is food intake. Nature of the test: Food intake in food-deprived rats. In kind it is in vivo, rat. To be noted: 30 mg/kg i.p., after 24h food deprivation.
The target in a further test is T1, α2c (Homo sapiens, UniProt P18825).
T1 sequence (P18825 1-462): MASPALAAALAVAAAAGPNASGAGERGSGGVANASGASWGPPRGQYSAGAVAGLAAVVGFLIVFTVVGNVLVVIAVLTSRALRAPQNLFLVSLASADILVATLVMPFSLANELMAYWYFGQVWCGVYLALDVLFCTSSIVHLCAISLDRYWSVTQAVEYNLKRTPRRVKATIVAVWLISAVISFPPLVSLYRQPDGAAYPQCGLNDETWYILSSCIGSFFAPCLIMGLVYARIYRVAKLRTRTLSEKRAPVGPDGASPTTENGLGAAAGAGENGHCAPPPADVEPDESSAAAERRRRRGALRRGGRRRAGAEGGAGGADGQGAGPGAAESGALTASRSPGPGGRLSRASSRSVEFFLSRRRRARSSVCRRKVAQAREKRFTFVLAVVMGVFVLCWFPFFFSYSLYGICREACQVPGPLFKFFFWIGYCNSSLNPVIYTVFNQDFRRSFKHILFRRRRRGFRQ
Nature of the test: Binding at cloned human α2c adrenergic receptor.

In the next test the target is T2, human Y4 receptor (Homo sapiens, UniProt P50391).
T2 construct: expressed in transfected cells; host or cells: COS-7 (transient)
The test is described as follows: ^125I-PYY binding to membranes, cloned human Y4 receptor. Particulars: read-out: Binding Affinity Ki vs. ^125I-PYY, Human Receptor Y4; Table 14; stably transfected LM(tk-) cells.

The next test deals with T3, human Y1 receptor (Homo sapiens, UniProt P25929).
T3 construct: expressed in transfected cells; host or cells: COS-7 (transient)
T3 sequence (P25929 1-384): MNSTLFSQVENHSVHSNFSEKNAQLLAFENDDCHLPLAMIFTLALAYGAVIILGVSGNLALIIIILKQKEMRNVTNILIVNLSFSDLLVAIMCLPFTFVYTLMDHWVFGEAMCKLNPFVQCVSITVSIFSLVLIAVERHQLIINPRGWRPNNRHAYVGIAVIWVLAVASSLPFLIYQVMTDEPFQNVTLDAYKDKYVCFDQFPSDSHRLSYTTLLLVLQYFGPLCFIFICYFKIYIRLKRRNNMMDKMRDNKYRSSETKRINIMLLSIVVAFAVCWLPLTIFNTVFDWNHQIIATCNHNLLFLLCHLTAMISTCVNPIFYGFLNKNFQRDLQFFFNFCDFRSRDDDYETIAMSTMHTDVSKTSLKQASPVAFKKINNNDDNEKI
The test is described as follows: ^125I-PYY binding to membranes, cloned human Y1 receptor. To be noted: read-out: Binding Affinity Ki vs. ^125I-PYY, Human Receptor Y1; Table 14; stably transfected 293 cells (compound 1 also COS-7).

For another test, the target named is T4, human Y2 receptor (Homo sapiens, UniProt P49146).
T4 construct: expressed in transfected cells; host or cells: COS-7 (transient)
T4 sequence (P49146 1-381): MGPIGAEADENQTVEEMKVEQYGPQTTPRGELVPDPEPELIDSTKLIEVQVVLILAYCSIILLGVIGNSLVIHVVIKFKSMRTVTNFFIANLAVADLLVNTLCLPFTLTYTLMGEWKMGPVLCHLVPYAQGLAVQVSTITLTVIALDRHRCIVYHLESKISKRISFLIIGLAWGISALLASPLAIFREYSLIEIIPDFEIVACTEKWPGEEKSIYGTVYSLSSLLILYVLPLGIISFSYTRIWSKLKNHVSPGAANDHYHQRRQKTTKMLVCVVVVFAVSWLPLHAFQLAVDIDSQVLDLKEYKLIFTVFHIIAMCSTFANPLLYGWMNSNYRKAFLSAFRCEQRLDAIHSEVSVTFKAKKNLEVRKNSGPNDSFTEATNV
The test is described as follows: ^125I-PYY binding to membranes, cloned human Y2 receptor. To be noted: read-out: Binding Affinity Ki vs. ^125I-PYY, Human Receptor Y2; Table 14; stably transfected 293 cells (compound 1 also COS-7).

For test [2], the target named is T5, human Y5 receptor (Homo sapiens, UniProt Q15761).
T5 sequence (Q15761 1-445): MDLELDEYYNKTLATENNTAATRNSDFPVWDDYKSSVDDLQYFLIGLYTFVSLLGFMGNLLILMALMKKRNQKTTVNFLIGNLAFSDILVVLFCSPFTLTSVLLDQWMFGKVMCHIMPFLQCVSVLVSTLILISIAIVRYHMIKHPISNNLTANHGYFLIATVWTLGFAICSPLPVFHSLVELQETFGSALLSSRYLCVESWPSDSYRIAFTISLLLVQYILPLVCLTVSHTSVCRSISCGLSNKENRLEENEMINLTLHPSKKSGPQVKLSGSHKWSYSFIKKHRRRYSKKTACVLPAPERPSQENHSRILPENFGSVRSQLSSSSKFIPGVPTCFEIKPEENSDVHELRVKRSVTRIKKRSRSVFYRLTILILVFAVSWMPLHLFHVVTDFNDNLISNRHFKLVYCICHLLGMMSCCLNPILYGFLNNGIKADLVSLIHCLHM
The test is described as follows: Radioligand binding to membranes of cells expressing cloned human Y5 receptor. Also noted: Ki Values, Human Y5; apparent Kd; pKd; The isolated clone (CG-19) turned out to contain a full length cDNA; The longest open reading frame encodes a 455 amino acid protein. To be noted: read-out: Binding Affinity Ki vs. ^125I-PYY, Human Receptor Y5; Table 14; stably transfected LM(tk-) cells.

The target of test [3] is T5, human Y5 receptor. Nature of the test: Radioimmunoassay of cAMP, cells stably expressing human Y5 receptor. In kind it is cell-based. Particulars: block of NPY-induced inhibition of cAMP accumulation, forskolin-stimulated LM(tk-) cells, human Y5. Also noted: Ki Values, Human Y5; apparent Kd; pKd; The isolated clone (CG-19) turned out to contain a full length cDNA; The longest open reading frame encodes a 455 amino acid protein. (cAMP levels reflect the balance of adenylyl cyclase and phosphodiesterase activity.)
Experimental: LM(tk-) cells stably transfected with the human Y5 receptor were routinely converted from an adherent monolayer to a viable suspension. […] The cell suspension was maintained in a shaking incubator at 37° C., 5% CO2 for 24 hours. […] Alternatively, cells may be returned to adherent cell culture in complete DMEM by distribution into 96-well microtiter plates coated with poly-D-lysine (0.01 mg/ml) followed by incubation at 37° C., 5% CO2 for 24 hours.
The maximum inhibition of cAMP accumulation (Emax) and the concentration producing a half-maximal effect (EC50) were determined by nonlinear regression analysis according to a 4 parameter logistic equation.
The ability of the compounds to antagonize the Y-type receptors is reported as the Kb. […] The results shown are representative of at least three independent experiments.

T2 sequence (P50391 whole entry): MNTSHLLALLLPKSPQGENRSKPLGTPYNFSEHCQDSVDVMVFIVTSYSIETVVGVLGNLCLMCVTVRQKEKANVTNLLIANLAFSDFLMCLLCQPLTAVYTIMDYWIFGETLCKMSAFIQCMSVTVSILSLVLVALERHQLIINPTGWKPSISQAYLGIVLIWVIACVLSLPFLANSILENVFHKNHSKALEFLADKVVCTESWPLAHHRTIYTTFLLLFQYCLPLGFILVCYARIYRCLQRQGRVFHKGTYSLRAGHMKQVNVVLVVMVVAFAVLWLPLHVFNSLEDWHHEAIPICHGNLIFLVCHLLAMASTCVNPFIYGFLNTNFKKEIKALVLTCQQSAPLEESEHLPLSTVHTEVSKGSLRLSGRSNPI

With `c1ccc(Nc2nc(Nc3ccccc3)c3ccccc3n2)cc1` [Compound 1, 2,4-Diphenylamino-guinazoline hydrochloride], in test [1] (mean ± S.E.M.), the “Food intake, NPY + compound” value was determined as 4.6 ± 0.6 g.
As for `Nc1nc(NCCCCCCNS(=O)(=O)c2cccc3ccccc23)nc2ccccc12` [Compound 2, Naphthalene-1-sulfonic acid [6-(4-amino-quinazolin-2-ylamino)-hexyl]-amide], the “Two-hour food intake of food-deprived rats, percentage of intake compared to control rats, Mean” value in the test with food intake is recorded as 42%.
In the case of `Cl.Nc1nc(NC[C@H]2CC[C@H](CNS(=O)(=O)c3cccc4ccccc34)CC2)nc2ccccc12` [Compound 5, trans-Naphthalene-1-sulfonic acid {4-[(4-amino-quinazolin-2-ylamino)-methyl]-cyclohexylmethyl}-amide hydrochloride], the “Food intake, NPY + compound” value in test [1] (mean ± S.E.M.) is recorded as 4.1 ± 0.4 g.
For `Cl.Cl.c1ccc(Nc2nc(Nc3ccc(N4CCCCC4)cc3)nc3ccccc23)cc1` [Compound 6, 2-[4-(Piperidin-1-yl)-phenylamino]-4-Phenylamino-quinazoline dihydrochloride], the “Two-hour food intake of food-deprived rats, percentage of intake compared to control rats, Mean” value in the test on food intake amounted to 38%. On α2c, this compound showed a pKi of 6.35.
Take `CC(=O)O[C@H]1CC[C@H](Nc2nc(Nc3ccccc3)c3ccccc3n2)CC1.Cl` [Compound 7, trans-2-(4-Acetoxy-cyclohexylamino)-4-Phenylamino-quinazoline hydrochloride]: the “Two-hour food intake of food-deprived rats, percentage of intake compared to control rats, Mean” value in the test on food intake is 47%.
On to `COc1ccc(Nc2nc(Nc3ccccc3)c3cccc(OC)c3n2)cc1.Cl` [Compound 9, 8-Methoxy-2-(4-methoxy-phenylamino)-4-phenylamino-quinazoline hydrochloride], for which the “Two-hour food intake of food-deprived rats, percentage of intake compared to control rats, Mean” value in the test with food intake is given as 40%.
Regarding `CNS(=O)(=O)Cc1ccc(Nc2nc(Nc3ccccc3)c3cc(OC)ccc3n2)cc1` [Compound 10, N-Methyl-[4-(6-methoxy-4-phenylamino-quinazolin-2-ylamino)-phenyl1-methanesulfonamide hydrochloride], the “Two-hour food intake of food-deprived rats, percentage of intake compared to control rats, Mean” value in the test with food intake amounted to 74%.
For `CNS(=O)(=O)Cc1ccc(Nc2nc(Nc3ccccc3)c3ccccc3n2)cc1.Cl` [Compound 11, N-Methyl-[4-(4-Phenylamino-quinazolin-2-ylamino)-phenyl]-methanesulfonamide hydrochloride], the “Two-hour food intake of food-deprived rats, percentage of intake compared to control rats, Mean” value with food intake is on record as 15%.
For the compound `Cl.O=S(=O)(NC[C@H]1CC[C@H](CNCc2ccc3ccccc3c2)CC1)c1ccccc1C(F)(F)F` [Compound 21], the pKi at human Y4 receptor was 4.73; on human Y1 receptor, 4.89; on human Y2 receptor, 5.79; at human Y5 receptor [2] it was 8.01. Moreover, the “Two-hour food intake of food-deprived rats, percentage of intake compared to control rats, Mean” value in the test on food intake was 80%.
In the case of `Cl.O=S(=O)(NC[C@H]1CC[C@H](CNCc2cccc3ccccc23)CC1)c1ccccc1C(F)(F)F` [Compound 23], the pKi on human Y4 receptor was 4.67; on human Y1 receptor it was 4.84; on human Y2 receptor, 6.21; at human Y5 receptor [2], 7.59. Besides, in the test on food intake, the “Two-hour food intake of food-deprived rats, percentage of intake compared to control rats, Mean” value worked out at 58%. Also, the Kb on human Y5 receptor [3] came to 38 nM.
Turning to `Cl.Cl.O=[N+]([O-])c1ccccc1S(=O)(=O)NC[C@H]1CC[C@H](CNCc2ccc3ccccc3n2)CC1` [Compound 26], the pKi on human Y4 receptor is 4.71; at human Y1 receptor, 4.63; on human Y2 receptor, 4.24. Also, the “Two-hour food intake of food-deprived rats, percentage of intake compared to control rats, Mean” value in the test on food intake was found to be 73%.
Take “NPY: peptide neurotransmitter neuropeptide Y, 36 amino acids; feeding studies used 300 pmole of porcine NPY i.c.v.”: in test [1] (300 pmole NPY i.c.v. alone, cumulative intake 4 hours after NPY, mean ± S.E.M.), the “Food intake, NPY” value was 7.4 ± 0.5 g and 6.8 ± 1.0 g and 5.8 ± 0.5 g and 4.9 ± 0.4 g. Also, in test [1] (300 pmole i.c.v., p<0.05 Student-Newman-Keuls), the “food intake of NPY-stimulated animals compared to vehicles” value is listed as “significantly induce food intake”.
